Assay results from patent publication US7910579B2, “Benzoxazole derivatives” (Tohoku University, priority 2006, dated 2011).

Key:
[1] = target: T1, Tg mouse intracerebral amyloid plaque (Homo sapiens, UniProt P05067); test: Investigation of transgenic (Tg) mice with amyloid deposition in their brain (fluorescence microscopy of brain sections after intravenous administration); type: in vivo; settings: Tg2576 mouse, 4 mg/kg intravenous; for Passage through the blood-brain barrier and binding to Tg mouse intracerebral amyloid plaque: 1 hour after administration
T1 construct: from tissue; host or cells: brain of Tg mice (Tg2576 or APPswe2576/Tau JNPL3) after intravenous dosing

[2] = Acute Toxicity Test; type: in vivo; settings: Crj:CD1 male mice, tail vein, observed for 7 days
[3] = Brain Permeability Test Through HPLC; type: in vivo; settings: mice, 2 minutes after intravenous administration
Description: A compound of the invention was intravenously administered to mice, and tested for its in-vivo brain permeability in the mice.
(1) Slc:ICR mice (by Nippon SLC) (body weight, 30 to 40 g; n=3) were used.
(2) A test compound was dissolved in a mixture of 5% Tween 80-5% ethyl alcohol-5% 1 N HCl-physiological saline water, and injected into the test mouse via its tail vein. Two minutes after the administration, the blood was collected from the test mouse under ether anesthesia via its abdominal aorta using a heparin-steeped syringe, and the brain material was collected from it.
(3) After collected, the blood was centrifuged at 4° C. and 14,000 rpm for 10 minutes, and the supernatant was stored at −80° C. as plasma. After collected, the brain material (including the cerebellum) was stored at −80° C.
(4) 0.3 ml of acetonitrile was added to 0.1 ml of the plasma, then vortexed, and centrifuged at 4° C. and under 10,000 G for 5 minutes. After centrifuged, 0.2 ml of the resulting supernatant was transferred into Mini-Uniprep (Whatman), then 0.2 ml of 20 mM phosphate buffer was added to it and filtered. 0.2 ml of the resulting filtrate was analyzed through HPLC (Shiseido Nanospace SI-2; pump, 3001; UV-VIS detector, 3002; column thermostat, 3004; fluorescence detector, 3013).
(5) 2 ml of methanol was added to the brain, homogenized, and centrifuged at 4° C. and 3000 or 4000 rpm for 10 minutes. After centrifuged, 500 μl of the resulting supernatant was diluted 10-fold with 20 mM phosphate buffer. (i) 2 to 3 ml of acetonitrile, (ii) 2 to 5 ml of methanol and (iii) 4 to 6 ml of ultra-pure water were led through a cartridge for solid-phase extraction (J. T. Baker Speedisk) in that order, and the 10-fold diluted supernatant solution was led through it. Via an empty syringe, air was applied to the cartridge for solid-phase extraction, two or three times to remove water, and then this was eluted with about 500 μl of acetonitrile or methanol, and the eluate was diluted 2-fold with 20 mM phosphate buffer. 0.2 ml of the resulting solution was analyzed through HPLC.
(6) The test compound content in the plasma and in the brain was determined relative to the dose of the compound (% ID (injected dose)/g or ml).

[4] = system: histidine-requiring Salmonella typhimurium TA100 and TA98 strains; test: Mutagenicity Test (reverse mutation test); type: cell-based; settings: for Relative Activity in the presence of S9Mix / Relative Activity in the absence of S9Mix: reverse mutation test; as to Relative Activity in the presence of S9Mix: key: minus: The number of colonies after reverse mutation did not increase at least two times that of the negative control
How it was run: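 Preincubation reverse-mutation test in S. typhimurium TA100 and TA98, with and without S9mix, 20 min at 37° C, then 48 h at 37° C on minimal glucose agar. Six doses (common ratio 2) in DMSO, top dose 5000 μg/plate or growth-inhibiting dose. Revertant colonies counted; positive at ≥2-fold over DMSO control with dose dependency or reproducibility.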

[5] = irrespective of the absence or presence of S9mix

T1 sequence (P05067 672-713 limits assumed): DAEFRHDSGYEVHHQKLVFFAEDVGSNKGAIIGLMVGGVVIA

Row | Structure (SMILES) | Passage through the blood-brain barrier and binding to Tg mouse intracerebral amyloid plaque [1] | Maximum Permissible Dose (mg/kg, intravenous administration) [2] | Brain Permeability: Brain [3] | Brain Permeability: Plasma [3] | Relative activity (mutagenicity) [4, 5] | Relative Activity in the presence of S9Mix [4] | Relative Activity in the absence of S9Mix [4] | Correspondence of the binding site to the anti-Aβ antibody-stained site of the same section ([1]; antibody 4G8) | Relative activity (mutagenicity) ([4]; in the presence of S9mix)
1 | FCCOc1ccc2nc(/C=C/c3cnc(N4CCOCC4)s3)oc2c1 [THK-525, 6-(2-fluoro-ethoxy)-2-[2-(2-morpholin-4-yl-thiazol-5-yl)-vinyl]-benzoxazole] | passed through the blood-brain barrier, and bound to the Tg mouse intracerebral amyloid plaque | ≧10 mg/kg | 7.9 % ID/g or ml | 3.1 % ID/g or ml | minus | minus | minus | – | –
2 | OCC(CF)Oc1ccc2nc(/C=C/c3cnc(N4CCOCC4)s3)oc2c1 (centres unmarked) [THK-702, (E)-2-[2-(2-morpholinothiazol-5-yl)ethenyl]-6-[(1-fluoromethyl-2-hydroxy)ethoxy]-benzoxazole] | passed through the blood-brain barrier, and bound to the amyloid plaque of the Tg mouse | ≧10 mg/kg | 5.1 % ID/g or ml | 2.7 % ID/g or ml | minus | minus | minus | completely corresponded to the anti-Aβ antibody-stained site | –
3 | OCC(CF)Oc1ccc2nc(/C=C/c3cnc(N4CCCC4)s3)oc2c1 (centres unmarked) [THK-752, (E)-6-[(1-fluoromethyl-2-hydroxy)ethoxy]-2-[2-[2-(pyrrolidin-1-yl)-thiazol-5-yl]ethenyl]benzoxazole] | – | ≧10 mg/kg | 6.7 % ID/g or ml | 1.9 % ID/g or ml | minus | minus | minus | – | –
4 | CNc1ncc(/C=C/c2nc3ccc(OC(CO)CF)cc3o2)s1 (centres unmarked) [THK-761, (E)-6-[(1-fluoromethyl-2-hydroxy)ethoxy]-2-[2-[2-methylaminothiazol-5-yl]ethenyl]-benzoxazole] | – | ≧10 mg/kg | – | – | – | minus | 11995 | – | weak
5 | CN(C)c1ncc(/C=C/c2nc3ccc(OC(CO)CF)cc3o2)s1 (centres unmarked) [THK-763, (E)-6-[(1-fluoromethyl-2-hydroxy)ethoxy]-2-[2-[2-dimethylamino-thiazol-5-yl]ethenyl]benzoxazole] | – | ≧10 mg/kg | – | – | – | minus | 3058 | – | weak
